Assays:
5-Fluorouracil = compound: O=c1[nH]cc(F)c(=O)[nH]1 [5-Fluorouracil]; conditions: max 20 µM
Summary of the method: (§1)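 Cancer cell lines were dosed for 72 hours (final DMSO typically 0.2%) after 24 hours at 37°C and 5% CO2 in 1536-well plates containing 7.5 μl DMEM/F12 or RPMI with 10% FBS. Viability came from CellTiter-Glo 2.0 luminescence, scaled between blank-well and DMSO-well means, and dose responses were fitted to a two-parameter logistic curve with a non-linear mixed effects model. The single-agent IC50 was obtained from this fit.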

Trametinib = compound: CC(=O)Nc1cccc(-n2c(=O)n(C3CC3)c(=O)c3c(Nc4ccc(I)cc4F)n(C)c(=O)c(C)c32)c1 [Trametinib]; conditions: max 1 µM
Summary of the method: as §1

AZD8186 = compound: C[C@@H](Nc1cc(F)cc(F)c1)c1cc(C(=O)N(C)C)cc2c(=O)cc(N3CCOCC3)oc12 [AZD8186]; conditions: max 10 µM
Summary of the method: as §1

Lapatinib = compound: CS(=O)(=O)CCNCc1ccc(-c2ccc3ncnc(Nc4ccc(OCc5cccc(F)c5)c(Cl)c4)c3c2)o1 [Lapatinib]; conditions: max 10 µM
Summary of the method: as §1

AZD1775 = compound: C=CCn1c(=O)c2cnc(Nc3ccc(N4CCN(C)CC4)cc3)nc2n1-c1cccc(C(C)(C)O)n1 [AZD1775]; conditions: max 3 µM
Summary of the method: as §1

MK-2206 = compound: NC1(c2ccc(-c3nc4ccn5c(=O)[nH]nc5c4cc3-c3ccccc3)cc2)CCC1 [MK-2206]; conditions: max 10 µM
Summary of the method: as §1

AZD0156 = compound: CN(C)CCCOc1ccc(-c2ccc3ncc4c(c3c2)n(C2CCOCC2)c(=O)n4C)cn1 [AZD0156]; conditions: max 3 µM
Summary of the method: as §1

AZD2811 = compound: CCN(CCO)CCCOc1ccc2c(Nc3cc(CC(=O)Nc4cccc(F)c4)[nH]n3)ncnc2c1 [AZD2811]; conditions: max 1 µM
Summary of the method: as §1

Doxorubicin = compound: COc1cccc2c1C(=O)c1c(O)c3c(c(O)c1C2=O)C[C@@](O)(C(=O)CO)C[C@@H]3O[C@H]1C[C@H](N)[C@H](O)[C@H](C)O1 [Doxorubicin]; conditions: max 1 µM
Summary of the method: as §1

AZD6738 = compound: C[C@@H]1COCCN1C2=NC(=NC(=C2)C3(CC3)[S@](=N)(=O)C)C4=C5C=CNC5=NC=C4 [AZD6738]; conditions: max 10 µM
Summary of the method: as §1

AZD7648 = compound: Cc1cc2ncnn2cc1Nc1ncc2c(n1)n(C1CCOCC1)c(=O)n2C [AZD7648]; conditions: max 10 µM
Summary of the method: as §1

SN-38 = compound: CCc1c2c(nc3ccc(O)cc13)-c1cc3c(c(=O)n1C2)COC(=O)[C@]3(O)CC [SN-38]; conditions: max 0.3 µM
Summary of the method: as §1

Selumetinib = compound: Cn1cnc2c(F)c(Nc3ccc(Br)cc3Cl)c(C(=O)NOCCO)cc21 [Selumetinib]; conditions: max 10 µM
Summary of the method: as §1

Prexasertib = compound: COc1cccc(OCCCN)c1-c1cc(Nc2cnc(C#N)cn2)n[nH]1 [Prexasertib]; conditions: max 1 µM
Summary of the method: as §1

AZD1390 = compound: CC(C)n1c(=O)n(C)c2cnc3cc(F)c(-c4ccc(OCCCN5CCCCC5)nc4)cc3c21 [AZD1390]; conditions: max 0.3 µM
Summary of the method: as §1

SRA737 = compound: N#Cc1cnc(Nc2cc(NC[C@H]3CNCCO3)c(C(F)(F)F)cn2)cn1 [SRA737]; conditions: max 10 µM
Summary of the method: as §1

Carboplatin = compound: C1CC(C1)(C(=O)[O-])C(=O)[O-].N.N.[Pt+2] [Carboplatin]; conditions: max 10 µM
Summary of the method: as §1

Savolitinib = compound: C[C@@H](c1ccc2nccn2c1)n1nnc2ncc(-c3cnn(C)c3)nc21 [Savolitinib]; conditions: max 1 µM
Summary of the method: as §1

AZD4320 = compound: CN(CC[C@H](CSC1=CC=CC=C1)NC2=C(C=C(C=C2)S(=O)(=O)NC(=O)C3=CC=C(C=C3)N4CCC(CC4)[C@H](C5=CC=CC=C5C6=CC=C(C=C6)Cl)O)S(=O)(=O)C(F)(F)F)CCO [AZD4320]; conditions: max 1 µM
Summary of the method: as §1

SG3199 = compound: CC1=CN2[C@@H](C1)C=NC3=CC(=C(C=C3C2=O)OC)OCCCCCOC4=C(C=C5C(=C4)N=C[C@@H]6CC(=CN6C5=O)C)OC [SG3199]; conditions: max 0.001 µM
Summary of the method: as §1

Venetoclax = compound: CC1(C)CCC(CN2CCN(c3ccc(C(=O)NS(=O)(=O)c4ccc(NCC5CCOCC5)c([N+](=O)[O-])c4)c(Oc4cnc5[nH]ccc5c4)c3)CC2)=C(c2ccc(Cl)cc2)C1 [Venetoclax]; conditions: max 1 µM
Summary of the method: as §1

Taselisib = compound: Cc1nc(-c2cn3c(n2)-c2ccc(-c4cnn(C(C)(C)C(N)=O)c4)cc2OCC3)n(C(C)C)n1 [Taselisib]; conditions: max 10 µM
Summary of the method: as §1

[1] = compound: O=C(Nc1ccc2[nH]nc(-c3ccncc3)c2c1)[C@@H]1CCN(CC(=O)N2CCN(c3ccc(-c4ncccn4)cc3)CC2)C1; conditions: max 5 µM
Summary of the method: as §1

Crizotinib = compound: C[C@@H](Oc1cc(-c2cnn(C3CCNCC3)c2)cnc1N)c1c(Cl)ccc(F)c1Cl [Crizotinib]; conditions: max 10 µM
Summary of the method: as §1

Paclitaxel = compound: CC(=O)O[C@H]1C(=O)[C@@]2(C)[C@H]([C@H](OC(=O)c3ccccc3)[C@]3(O)C[C@H](OC(=O)[C@H](O)[C@@H](NC(=O)c4ccccc4)c4ccccc4)C(C)=C1C3(C)C)[C@]1(OC(C)=O)CO[C@@H]1C[C@@H]2O [Paclitaxel]; conditions: max 3 µM
Summary of the method: as §1

Etoposide = compound: COc1cc([C@@H]2c3cc4c(cc3[C@@H](O[C@@H]3O[C@@H]5CO[C@@H](C)O[C@H]5[C@H](O)[C@H]3O)[C@H]3COC(=O)[C@H]23)OCO4)cc(OC)c1O [Etoposide]; conditions: max 10 µM
Summary of the method: as §1

Gefitinib = compound: COc1cc2ncnc(Nc3ccc(F)c(Cl)c3)c2cc1OCCCN1CCOCC1 [Gefitinib]; conditions: max 10 µM
Summary of the method: as §1

Alisertib = compound: COc1cc(Nc2ncc3c(n2)-c2ccc(Cl)cc2C(c2c(F)cccc2OC)=NC3)ccc1C(=O)O [Alisertib]; conditions: max 10 µM
Summary of the method: as §1

Gemcitabine = compound: Nc1ccn([C@@H]2O[C@H](CO)[C@@H](O)C2(F)F)c(=O)n1 [Gemcitabine]; conditions: max 0.3 µM
Summary of the method: as §1

AZD5991 = compound: Cc1c2c(nn1C)CSCc1cc(n(C)n1)CSc1cc(c3ccccc3c1)OCCCc1c(C(=O)O)n(C)c3c-2c(Cl)ccc13 [AZD5991]; conditions: max 1 µM
Summary of the method: as §1

Palbociclib = compound: CC(=O)c1c(C)c2cnc(Nc3ccc(N4CCNCC4)cn3)nc2n(C2CCCC2)c1=O [Palbociclib]; conditions: max 10 µM
Summary of the method: as §1

Olaparib = compound: O=C(c1cc(Cc2n[nH]c(=O)c3ccccc23)ccc1F)N1CCN(C(=O)C2CC2)CC1 [Olaparib]; conditions: max 10 µM
Summary of the method: as §1

Dasatinib = compound: CC1=C(C(=CC=C1)Cl)NC(=O)C2=CN=C(S2)NC3=CC(=NC(=N3)C)N4CCN(CC4)CCO [Dasatinib]; conditions: max 2 µM
Summary of the method: as §1

AZD5153 = compound: COc1nnc2ccc(N3CCC(c4ccc(OCCN5CCN(C)C(=O)[C@H]5C)cc4)CC3)nn12 [AZD5153]; conditions: max 1 µM
Summary of the method: as §1

AZD5363 = compound: C1CN(CCC1(C(=O)N[C@@H](CCO)C2=CC=C(C=C2)Cl)N)C3=NC=NC4=C3C=CN4 [AZD5363]; conditions: max 10 µM
Summary of the method: as §1

Row | Cell Line | IC50, cell viability 72 h (5-Fluorouracil) [µM] | IC50, cell viability 72 h (Trametinib) [µM] | IC50, cell viability 72 h (AZD8186) [µM] | IC50, cell viability 72 h (Lapatinib) [µM] | IC50, cell viability 72 h (AZD1775) [µM] | IC50, cell viability 72 h (MK-2206) [µM] | IC50, cell viability 72 h (AZD0156) [µM] | IC50, cell viability 72 h (AZD2811) [µM] | IC50, cell viability 72 h (Doxorubicin) [µM] | IC50, cell viability 72 h (AZD6738) [µM] | IC50, cell viability 72 h (AZD7648) [µM] | IC50, cell viability 72 h (SN-38) [µM] | IC50, cell viability 72 h (Selumetinib) [µM] | IC50, cell viability 72 h (Prexasertib) [µM] | IC50, cell viability 72 h (AZD1390) [µM] | IC50, cell viability 72 h (SRA737) [µM] | IC50, cell viability 72 h (Carboplatin) [µM] | IC50, cell viability 72 h (Savolitinib) [µM] | IC50, cell viability 72 h (AZD4320) [µM] | IC50, cell viability 72 h (SG3199) [µM] | IC50, cell viability 72 h (Venetoclax) [µM] | IC50, cell viability 72 h (Taselisib) [µM] | IC50, cell viability 72 h [1] [µM] | IC50, cell viability 72 h (Crizotinib) [µM] | IC50, cell viability 72 h (Paclitaxel) [µM] | IC50, cell viability 72 h (Etoposide) [µM] | IC50, cell viability 72 h (Gefitinib) [µM] | IC50, cell viability 72 h (Alisertib) [µM] | IC50, cell viability 72 h (Gemcitabine) [µM] | IC50, cell viability 72 h (AZD5991) [µM] | IC50, cell viability 72 h (Palbociclib) [µM] | IC50, cell viability 72 h (Olaparib) [µM] | IC50, cell viability 72 h (Dasatinib) [µM] | IC50, cell viability 72 h (AZD5153) [µM] | IC50, cell viability 72 h (AZD5363) [µM]
1 | CAL-62 (Thyroid Gland Carcinoma) | > 20 | 0.551 | > 10 | > 10 | 1.32 | > 10 | > 3 | > 1 | 0.372 | 5.21 | > 10 | 0.00459 | > 10 | 0.158 | > 0.3 | > 10 | > 10 | > 1 | > 1 | > 0.001 | > 1 | > 10 | 4.09 | > 10 | 0.00733 | 3.42 | > 10 | > 10 | 0.0355 | > 1 | > 10 | > 10 | 0.784 | 0.127 | > 10
2 | COLO-680N (Esophageal Squamous Cell Carcinoma) | > 20 | > 1 | > 10 | > 10 | > 3 | > 10 | > 3 | > 1 | > 1 | > 10 | > 10 | > 0.3 | > 10 | > 1 | > 0.3 | > 10 | > 10 | > 1 | > 1 | > 0.001 | > 1 | > 10 | > 5 | > 10 | 1.3 | > 10 | > 10 | > 10 | > 0.3 | > 1 | > 10 | > 10 | > 2 | > 1 | > 10
3 | HSC-39 (Gastric Carcinoma) | 16.6 | 0.423 | > 10 | 5.62 | 0.398 | > 10 | > 3 | 0.15 | 0.16 | 0.538 | > 10 | 0.00739 | > 10 | 0.00486 | > 0.3 | 0.519 | > 10 | > 1 | > 1 | > 0.001 | 0.561 | 0.791 | 2.88 | 2.06 | 0.00455 | 1.23 | > 10 | < 0.01 | 0.0117 | 0.0556 | 4.37 | > 10 | > 2 | 0.322 | > 10
4 | IST-MES1 (Mesothelioma) | > 20 | > 1 | > 10 | > 10 | > 3 | > 10 | > 3 | > 1 | 0.43 | > 10 | > 10 | 0.0614 | > 10 | > 1 | > 0.3 | > 10 | > 10 | > 1 | > 1 | > 0.001 | > 1 | > 10 | > 5 | > 10 | 0.504 | > 10 | > 10 | > 10 | 0.181 | > 1 | > 10 | > 10 | 0.243 | 0.246 | > 10
5 | L-1236 (Hodgkin's Lymphoma) | > 20 | > 1 | 2.08 | > 10 | 0.0854 | 8.4 | > 3 | > 1 | > 1 | 3.96 | > 10 | 0.0624 | > 10 | 0.0327 | > 0.3 | 0.969 | > 10 | > 1 | 0.0895 | > 0.001 | 0.861 | 9.38 | > 5 | 1.94 | 0.0362 | 3.35 | > 10 | > 10 | 0.0177 | > 1 | 6.34 | > 10 | > 2 | 0.0132 | 2.81

— the supplement of paper PMC11061612
